From ChEMBL document CHEMBL4038312 (J Med Chem, 2017)
≈ marks a conversion by molar mass, not a printed value. Values belong to the compound of their own block, whether it stands above or below them.

What was measured:
[1] = Solubility of the compound at pH 6.5; assay type: physicochemical; conditions: buffer
physchem [2] = conditions: octanol/water, pH 7.4
[3] = Volume of distribution at steady state in rat at 1 mg/kg, iv; assay type: ADME, organism-based; conditions: in vivo, read-out: Vdss
[4] = Cmax in rat at 3 mg/kg, po; assay type: ADME, organism-based; set-up: dose 3 mg/kg, route oral; conditions: in vivo
in vivo = conditions: rat, po, 3 mg/kg
[5] = Permeability in RRCK cells; assay type: ADME, cell-based, Canis lupus familiaris, MDCKII-LE; conditions: dog, MDCK; read-out: permeability
physchem [6] = assay: physchem
[7] = AUC (0 to infinity) in rat at 3 mg/kg, po; assay type: ADME, organism-based; set-up: dose 3 mg/kg, time infinity, route oral; conditions: in vivo
[8] = Volume of distribution at steady state in dog at 0.1 mg/kg, iv; assay type: ADME, organism-based, Canis lupus familiaris; conditions: in vivo, read-out: Vdss
[9] = Cmax in dog at […], po; assay type: ADME, organism-based, Canis lupus familiaris; set-up: dose 0.13 mg/kg, route oral; conditions: in vivo
[10] = AUC (0 to infinity) in dog at […], po; assay type: ADME, organism-based, Canis lupus familiaris; set-up: dose 0.13 mg/kg, time infinity, route oral; conditions: in vivo
[11] = Oral bioavailability in dog at […]; assay type: ADME, organism-based, Canis lupus familiaris; conditions: in vivo
[12] = Oral bioavailability in dog at 3 mg/kg; assay type: ADME, organism-based, Canis lupus familiaris; conditions: in vivo
[13] = Tmax in rat at 3 mg/kg, po; assay type: ADME, organism-based; conditions: in vivo
[14] = Tmax in dog at 3 mg/kg, po; assay type: ADME, organism-based, Canis lupus familiaris; conditions: in vivo
[15] = Cmax in dog at 3 mg/kg, po; assay type: ADME, organism-based, Canis lupus familiaris; set-up: dose 3 mg/kg, route oral; conditions: in vivo
[16] = Dissociation constant, pKa of the compound; assay type: physicochemical
[17] = Apparent permeability from basolateral to apical side in MDCK cells harboring MDR1; assay type: ADME, cell-based, Canis lupus familiaris; conditions: dog
[18] = Oral bioavailability in human at 100 ug; assay type: ADME, organism-based; conditions: in vivo
[19] = Apparent permeability from apical to basolateral side in MDCK cells harboring MDR1; assay type: ADME, cell-based, Canis lupus familiaris; conditions: dog
[20] = Volume of distribution at steady state in human at 100 ug, iv; assay type: ADME; conditions: in vivo, read-out: Vdss
[21] = Cmax in human at 100 ug, po; assay type: ADME; set-up: dose 100 ug, route oral; conditions: in vivo
[22] = Basic dissociation constant, pKa of the compound; assay type: physicochemical
Homo sapiens = assay: Unbound Cmax in human at 2400 mg, po; assay type: ADME; conditions: in vivo
[23] = Drug excretion in iv dosed bile duct cannulated rat bile after 6 hrs; assay type: ADME, organism-based; conditions: read-out: Drug excretion

SMILES: CCN1CC(n2nccc2-c2cc(Cl)ccc2Oc2ccc(S(=O)(=O)Nc3cscn3)cc2C#N)C1 [PF-05150122]
solubility [1]: > 262 µM
Tmax [13]: 0.3 h
pKa [22]: 7.4
logD (physchem [2]): 1.4
Papp B→A [17]: 11 ×10⁻⁶ cm/s
Vd [3]: 29.7 L/kg
Cmax [4]: 92.7 ng/mL
bioavailability [18]: 52%
Papp A→B [19]: < 0.5 ×10⁻⁶ cm/s
Vd [20]: 0.41 L/kg
bioavailability (in vivo): 68%
Papp [5]: 3.2 ×10⁻⁶ cm/s
Cmax [21]: 0.67 ng/mL
pKa (physchem [6]): 6.5
Vd [8]: 0.9 L/kg

SMILES: Nc1[nH]ncc1-c1cc(Cl)ccc1Oc1cc(F)c(S(=O)(=O)Nc2cscn2)cc1Cl [PF-05089771]
solubility [1]: < 0.3 µM
fCmax (Homo sapiens): 226 nM
Tmax [13]: 2 h
Tmax [14]: 0.9 h
Cmax [15]: 998 ng/mL
logD (physchem [2]): 2.3 to 2.6
Papp B→A [17]: 6.3 ×10⁻⁶ cm/s
Cmax [4]: 541 ng/mL
bioavailability [18]: 110%
Papp A→B [19]: 0.7 ×10⁻⁶ cm/s
Vd [20]: 0.15 L/kg
Papp [5]: 3.8 ×10⁻⁶ cm/s
Cmax [21]: 11 ng/mL
pKa (physchem [6]): 6.3
Vd [8]: 0.2 L/kg

SMILES: Nc1n[nH]cc1-c1cc(C(F)(F)F)ccc1Oc1cc(F)c(S(=O)(=O)Nc2cscn2)cc1Cl
logD (physchem [2]): 2.2
pKa (physchem [6]): 6.3

SMILES: CN1CC(n2nccc2-c2cc(Cl)ccc2Oc2cc(F)c(S(=O)(=O)Nc3cscn3)cc2F)C1
logD (physchem [2]): 1.3

SMILES: CN1CC(n2nccc2-c2cc(Cl)ccc2Oc2cc(F)c(S(=O)(=O)Nc3ncns3)cc2F)C1
logD (physchem [2]): 1

SMILES: O=S(=O)(Nc1cscn1)c1cc(Cl)c(Oc2ccc(C(F)(F)F)cc2-c2ccnnc2)cc1F
pKa [16]: 5.6
logD (physchem [2]): 1.6

SMILES: Cn1nccc1-c1cc(Cl)ccc1Oc1ccc(S(=O)(=O)Nc2nncs2)cc1C#N
pKa (physchem [6]): 4.5

SMILES: CCN1CC(n2nccc2-c2cc(Cl)ccc2Oc2cc(F)c(S(=O)(=O)Nc3cscn3)cc2F)C1
logD (physchem [2]): 1.6

SMILES: Cn1nccc1-c1cc(Cl)ccc1Oc1ccc(S(=O)(=O)Nc2ncns2)cc1F
pKa (physchem [6]): 3.5

SMILES: Cn1nccc1-c1cc(Cl)ccc1Oc1cc(F)c(S(=O)(=O)Nc2nncs2)cc1Cl
pKa (physchem [6]): 4.5

SMILES: Cn1nccc1-c1cc(Cl)ccc1Oc1cc(F)c(S(=O)(=O)Nc2ncns2)cc1F
pKa (physchem [6]): 3.5

Next, values leading:

solubility [1]: > 300 µM
logD (physchem [2]): 2
Vd [3]: 6.3 L/kg
Cmax [4]: 4 ng/mL
bioavailability (in vivo): < 5%
Papp [5]: 1.1 ×10⁻⁶ cm/s
pKa (physchem [6]): 3.5
AUC(0-inf) [7]: 26 ng·h/mL
Vd [8]: 1.8 L/kg
SMILES: Cc1[nH]ncc1-c1cc(C(F)(F)F)ccc1Oc1ccc(S(=O)(=O)Nc2ncns2)cc1C#N

solubility [1]: 259 µM (≈ 119 µg/mL)
Cmax [9]: 18 ng/mL
AUC(0-inf) [10]: 40 ng·h/mL
logD (physchem [2]): 1.7
bioavailability [11]: 23%
Vd [3]: 2.3 L/kg
Papp [5]: 2.1 ×10⁻⁶ cm/s
pKa (physchem [6]): 3.5
Vd [8]: 0.5 L/kg
SMILES: N#Cc1cc(S(=O)(=O)Nc2ncns2)ccc1Oc1ccc(Cl)cc1-c1cn[nH]c1

bioavailability [12]: 54%
solubility [1]: 286 µM (≈ 152 µg/mL)
Tmax [13]: 1.5 h
Tmax [14]: 1.5 h
Cmax [15]: 2890 ng/mL
pKa [16]: 4
logD (physchem [2]): 0.8 to 0.9
Papp B→A [17]: 1.1 ×10⁻⁶ cm/s
Vd [3]: 11 L/kg
Cmax [4]: 73.2 ng/mL
bioavailability [18]: 101%
Papp A→B [19]: < 0.5 ×10⁻⁶ cm/s
Vd [20]: 0.18 L/kg
bioavailability (in vivo): 16%
Papp [5]: 0.7 ×10⁻⁶ cm/s
Cmax [21]: 4.8 ng/mL
pKa (physchem [6]): 4.3
Vd [8]: 0.5 L/kg
SMILES: O=S(=O)(Nc1nncs1)c1cc(Cl)c(Oc2ccc(C(F)(F)F)cc2-c2ccnnc2)cc1F [PF-05186462]

pKa (physchem [6]): 3.5
SMILES: Cn1nccc1-c1cc(Cl)ccc1Oc1ccc(S(=O)(=O)Nc2ncns2)cc1C#N

logD (physchem [2]): 0.9
SMILES: N#Cc1cc(S(=O)(=O)Nc2ncns2)ccc1Oc1ccc(C(F)(F)F)cc1-c1ccncn1

logD (physchem [2]): 1.6
SMILES: N#Cc1cc(S(=O)(=O)Nc2ncns2)ccc1Oc1ccc(Cl)cc1-c1ccnc(N)c1

logD (physchem [2]): 1.6
SMILES: N#Cc1cc(S(=O)(=O)Nc2ncns2)ccc1Oc1ccc(Cl)cc1-c1ccn[nH]1

solubility [1]: > 300 µM
dose excreted at 6 h [23]: 73%
logD (physchem [2]): 0.7
Vd [3]: 1.3 L/kg
Cmax [4]: 1 ng/mL
bioavailability (in vivo): < 1%
Papp [5]: 0.7 ×10⁻⁶ cm/s
AUC(0-inf) [7]: 5 ng·h/mL
Vd [8]: 1.2 L/kg
SMILES: N#Cc1cc(S(=O)(=O)Nc2ncns2)ccc1Oc1ccc(C(F)(F)F)cc1-c1ccnnc1

logD (physchem [2]): 1
SMILES: N#Cc1cc(S(=O)(=O)Nc2ncns2)ccc1Oc1ccc(Cl)cc1-c1cn[nH]c1N

logD (physchem [2]): 0.7
SMILES: N#Cc1cc(S(=O)(=O)Nc2ncns2)ccc1Oc1ccc(C(F)(F)F)cc1-c1cccnn1
